Key:
[1] = tested on: ES-2 cells; assay: Scratch assay, migration of ovarian tumor cells; type: cell-based; details: 6 hours pre-treatment; images 18 hours post-scratching; BMS-777607 up to 10 μM
[2] = tested on: H1650; assay: H1650 NSCLC xenograft; type: in vivo, athymic nude mice; details: 21-day regimen; tartrate salt 40 mpk qd; osimertinib 20 mpk qd
Protocol: H1650 cells were injected subcutaneously into the hind flank of athymic nude mice at 1×10^7 cells/mouse. Once tumor volumes exceeded 100 mm^3, mice were randomized into study arms.
To assess the combination in vivo, the H1650 xenograft model for NSCFC was utilized. […] Slug and E-cadherin mRNA expression was assessed by standard qPCR technique. […] Slug and E-cadherin protein expression was assessed by standard immunoblotting technique.
(§1) Tumor volumes and bodyweights were assessed twice weekly.
as §1

[3] = tested on: H1650 NSCLC cell line; assay: H1650 cell viability (CellTiter-Glo); type: cell-based; details: Homo sapiens, NCI-H1650
[4] = tested on: CYP26 mRNA in MV4-11 leukemia cells; assay: CYP26 mRNA expression (RT-PCR); type: cell-based; details: 1 μM RA; 6 hours
[5] = Solid state stability at 40° C./75% RH; type: physicochemical
Protocol: Agilent 1260 HPLC was utilized and detailed chromatographic conditions for purity and solubility measurement are listed in Table 13 below.
The table below summarizes the characterization and solid state stability results observed for FB and Forms A, B, and D. Samples were prepared and data was obtained according to the procedures and processes listed above unless otherwise specified. More procedures, processes, and results are listed below in Table 14.

[6] = Dynamic Vapor Sorption (DVS); type: physicochemical; details: 25° C.
Protocol: The Dynamic Vapour Sorption studies were performed using a Surface Measurement Systems Ltd. DVS-1 No Video, equipment #2126. The sample is loaded into balance pan, typically 20-30 mg, and equilibrated at 0% RH. […] After completion of the sorption cycle, the sample was dried using the same method. The software used for data collection is DVSWin v3.01 No Video. Data analysis is performed using DVS Standard Analysis Suite v6.3.0 (Standard).

[7] = Kinetic solubility in bio-relevant buffers; type: physicochemical; details: for solubility at 24 h: 37 °C, thermodynamic from solid
[8] = pH solubility; type: physicochemical; details: for solubility at 24 h: 37 °C, thermodynamic from solid; for FC (form change) of residual solid: 24 hours
[9] = Single dose toxicity study; type: in vivo; details: single oral 150 mg/kg (free base equivalent); by the end of the recovery period
Protocol: The FB dose levels evaluated were 20, 50, and 150 mg/kg. The test articles were formulated with 1% Tween 80/5% TPGS/Sterile Water for Injection (v/v/v) and the study designed as indicated in Table 15 below:
Endpoints in the study consisted of mortality checks, clinical observations, body weight measurements and toxicokinetics. Following a 7-day post-dose observation period, animals were euthanized, necropsied and macroscopic observations recorded.

[10] = 7-day repeat dose toxicity and toxicokinetics; type: in vivo, CD-1 mice; details: high dose level (80 mg/kg/day)
Excerpt: The test articles were formulated with 1% Tween 80/5% TPGS/Sterile Water for Injection (v/v/v) and the study designed as indicated in Table 16 below:
Endpoints during the study consisted of clinical observations, body weight, and toxicokinetics. Animals euthanized due to excessive body weight loss in the toxicology-designated groups were euthanized, necropsied, and macroscopic observations recorded.

[11] = Stability studies of crystalline forms (HPLC); type: physicochemical; details: for Stability by HPLC: mono-tartrate salt
[12] = Moisture sorption isotherm of crystalline forms; type: physicochemical

With `CCOc1ccn(-c2ccc(F)cc2)c(=O)c1C(=O)Nc1ccc(Oc2ccnc(N)c2Cl)c(F)c1` [BMS-777607] the “migration of ES-2 cells” value [1] was “did not inhibit migration”.

With `C=CC(=O)Nc1cc(Nc2nccc(-c3cn(C)c4ccccc34)n2)c(OC)cc1N(C)CCN(C)C` [osimertinib] the “tumor growth inhibition (% TGI), single agent” value [2] was 121%, the EC50 [3] was 2.2 µM and the IC50 ([3]; single agent, 72 hours) was 2.2 µM.

For Retinyl Acetate [RA], the “induction in mRNA expression levels of CYP26” value [4] was ~4.3 fold.

For `CN1CCN(Cc2ccc(Nc3ncc(Cl)c(Nc4ccccc4S(=O)(=O)N(C)C)n3)cc2)CC1.O=C(O)C(O)C(O)C(=O)O` [Form D, 2-((5-chloro-2-((4-((4-methylpiperazin-1-yl)methyl)phenyl)amino)pyrimidin-4-yl)amino)-N,N-dimethylbenzenesulfonamide mono-tartrate salt], the “Form Change at 3 weeks” value ([5]; 3 weeks under 40° C./75% RH) was “No”, the “HPLC Purity at 3 weeks (area %)” value ([5]; 3 weeks under 40° C./75% RH) was 98.3 area % and the “Initial HPLC Purity (area %)” value ([5]; initial, before storage) was 98.8 area %. The “water uptake at 80% RH” value ([6]; DVS, mono-tartrate salt) was 5.2%, the “FC (form change) after DVS” value ([6]; up to 80% RH) was “Yes” and the solubility at 24 h ([7]; FaSSIF, 24 hours) was 3900 µg/mL. For the same compound, the “FC (form change) of residual solid” value ([7]; FaSSIF, 24 hours) was “Yes”, the solubility at 24 h ([7]; FeSSIF, 24 hours) was 4600 µg/mL and the solubility at 24 h ([7]; SGF, simulated gastric fluid, 24 hours) was > 11000 µg/mL. The solubility kinetic ([7]; bio-relevant buffers (FaSSIF, fassgf or other biorelevant, thermodynamic from solid), FaSSIF, FeSSIF and SGF, 37° C., read-out: kinetic solubility in all biorelevant buffers) was > 5000 µg/mL, the solubility at 24 h ([8]; pH 2.0 buffer, pH 2, aqueous buffer) was > 6800 µg/mL and the “FC (form change) of residual solid” value ([8]; pH 4.0) was “Yes”. For the same compound, the solubility at 24 h ([8]; pH 4.0 buffer, pH 4, aqueous buffer) was 230 µg/mL, the “FC (form change) of residual solid” value ([8]; pH 6.0) was “Yes” and the solubility at 24 h ([8]; pH 6.0 buffer, pH 6, aqueous buffer) was 1900 µg/mL. The “FC (form change) of residual solid” value ([8]; pH 8.0) was “Yes”, the solubility at 24 h ([8]; pH 8.0 buffer, pH 8, aqueous buffer) was 5 µg/mL and the “FC (form change) of residual solid” value ([8]; pH 10.0) was “Yes”. For the same compound, the solubility at 24 h ([8]; pH 10.0 buffer, pH 10, aqueous buffer) was 53 µg/mL, the mortality [9] was 100% and the mortality [10] was “one mouse died”. For the same compound, the “Stability Results” value ([11]; 40° C.) was 98.2%, the “Stability Results” value ([11]; 40° C./75% RH) was 98.4% and the “Stability Results” value ([11]; 60° C.) was 98.2%. For the same compound, the “Stability Results” value ([11]; 60° C./75% RH) was 98.2%, the “Stability Results” value ([11]; Initial) was 98.4% and the “Stability by HPLC” value ([11]; listed as D) was “Stable”. For the same compound, the “Stability by HPLC” value [11] was “No significant changes”, the Moisture sorption isotherm [12] was “hygroscopic” and the “crystal form by XRPD after the moisture absorption/desorption cycle” value [12] was “transformed to the other forms”.
